Reference: US20170298055A1, “sGC STIMULATORS” (IRONWOOD PHARMACEUTICALS, INC., priority 2014, published 2017)

target: T1, soluble guanylate cyclase (sGC) (Homo sapiens, UniProt Q02108+Q02153); experiment: sGC-HEK-cGMP assay, LC/MS detection, with SNP incubation (Example 2A); format: cell-based; conditions: HEK293 cells, in the presence of 10 μM SNP; constrained fit; read-out: sGC_HEK_LCMS cEC50 (nM) Binned (constrained)
T1 construct: endogenously expressing soluble guanylate cyclase (sGC); endogenous in cells; host or cells: HEK293
T1 sequence (Q02153 1-619): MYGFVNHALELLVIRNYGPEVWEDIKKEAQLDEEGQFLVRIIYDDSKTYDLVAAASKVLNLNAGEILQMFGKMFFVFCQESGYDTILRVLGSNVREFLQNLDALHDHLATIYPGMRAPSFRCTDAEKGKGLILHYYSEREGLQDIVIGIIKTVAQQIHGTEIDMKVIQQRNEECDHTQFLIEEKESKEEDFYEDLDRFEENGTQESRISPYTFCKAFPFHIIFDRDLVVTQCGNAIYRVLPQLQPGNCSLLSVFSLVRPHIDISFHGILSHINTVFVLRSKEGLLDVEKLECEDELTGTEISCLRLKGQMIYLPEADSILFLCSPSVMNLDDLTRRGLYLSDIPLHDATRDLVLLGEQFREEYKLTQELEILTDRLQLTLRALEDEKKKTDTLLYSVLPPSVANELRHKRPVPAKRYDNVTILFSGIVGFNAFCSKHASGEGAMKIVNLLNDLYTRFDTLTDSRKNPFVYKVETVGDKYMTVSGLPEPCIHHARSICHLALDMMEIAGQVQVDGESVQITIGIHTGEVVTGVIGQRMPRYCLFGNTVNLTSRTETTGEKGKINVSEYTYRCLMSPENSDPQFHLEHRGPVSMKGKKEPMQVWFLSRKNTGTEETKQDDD
T1 sequence (Q02108 1-690): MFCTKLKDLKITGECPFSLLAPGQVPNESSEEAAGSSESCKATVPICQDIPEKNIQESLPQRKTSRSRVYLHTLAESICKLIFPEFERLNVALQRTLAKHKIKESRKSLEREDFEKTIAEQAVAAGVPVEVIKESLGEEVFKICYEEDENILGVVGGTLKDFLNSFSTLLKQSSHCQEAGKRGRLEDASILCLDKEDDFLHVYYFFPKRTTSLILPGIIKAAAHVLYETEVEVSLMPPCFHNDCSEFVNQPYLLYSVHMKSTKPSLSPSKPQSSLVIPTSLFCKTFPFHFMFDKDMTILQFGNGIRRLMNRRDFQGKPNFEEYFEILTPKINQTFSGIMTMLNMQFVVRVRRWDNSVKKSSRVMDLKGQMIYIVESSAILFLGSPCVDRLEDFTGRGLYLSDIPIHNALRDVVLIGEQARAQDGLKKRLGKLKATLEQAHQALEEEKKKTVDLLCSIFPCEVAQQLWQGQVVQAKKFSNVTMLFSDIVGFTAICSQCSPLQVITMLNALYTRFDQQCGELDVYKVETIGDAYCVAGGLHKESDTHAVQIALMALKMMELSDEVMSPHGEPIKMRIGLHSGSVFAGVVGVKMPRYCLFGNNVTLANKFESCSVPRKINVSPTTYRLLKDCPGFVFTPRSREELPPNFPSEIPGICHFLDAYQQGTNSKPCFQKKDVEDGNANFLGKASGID
Description: Human embryonic kidney cells (HEK293), endogenously expressing soluble guanylate cyclase (sGC), were used to evaluate the activity of test compounds. Compounds stimulating the sGC receptor should cause an increase in the intracellular concentration of cGMP. HEK 293 cells were seeded in Dulbecco's Modification of Eagle's Medium supplemented with fetal bovine serum (10% final) and L-glutamine (2 mM final) in a 200 μL volume at a density of 1×10^5 cells/well in a poly-D-lysine coated 96 well flat bottom plate and grown overnight at 37° C. Medium was aspirated and cells were washed with 1× Hank's Buffered Saline Salt Solution (200 μL). Cells were then incubated for 15 minutes at 37° C. with 0.5 mM 3-isobutyl-1-methylxanthine (200 μL). Test article and sodium nitroprusside were then added to the assay mixture (2 μL each) and incubated at 37° C. for 10 minutes. After the 10 minute incubation, the assay mixture was aspirated and 0.1M HCl (200 μL) was added to the cells. The plate was incubated at 4° C. for 30 minutes in the 0.1M HCl to stop the reaction and lysed the cells. The plates were then centrifuged at 1,200 g for 5 minutes at room temperature. Supernatants were collected and transferred to a new flat bottom 96 well plate for analysis. Vehicle controls were carried out using DMSO (1%). A known sGC stimulator, BAY 41-2272, was used as the positive control. Samples were diluted with an equal volume of 1 M Ammonium Acetate (pH 7) to neutralize samples for better chromatography. A 2× cGMP standard curve was prepared in 0.1 M HCl and then diluted with an equal volume of 1 M Ammonium Acetate, with the following final concentrations in nM: 1024, 512, 256, 128, 64, 32, 16, 8, 4, 2, 1. cGMP concentrations were determined from each sample using the LC/MS conditions (Table 2 below) and calculated standard curve. EC50 values were calculated from concentration-response curves generated with GraphPad Prism Software.

| EC50 | SMILES |
| --- | --- |
| 1000 to 5000 nM | CS(=O)(=O)CCCOc1nc(-c2cc(-c3ccon3)n(Cc3ccccc3F)n2)ncc1F [Compound I-18] |
| 1000 to 5000 nM | Fc1ccccc1Cn1nc(-c2ncc(F)c(OC3CCNC3)n2)cc1-c1ccon1 (centres unmarked) [Compound I-5] |
| 1000 to 5000 nM | O=C(COc1nc(-c2cc(-c3ccon3)n(Cc3ccccc3F)n2)ncc1F)N1CCOCC1 [Compound I-11] |

same assay, conditions: HEK293 cells, in the presence of 10 μM SNP; top of concentration-response curve not fitted to 100%; read-out: sGC_HEK_LCMS uEC50 (nM) Binned (unconstrained)

| EC50 | SMILES |
| --- | --- |
| 1000 to 5000 nM | CS(=O)(=O)N1CCCC(Oc2nc(-c3cc(-c4ccon4)n(Cc4ccccc4F)n3)ncc2F)C1 (centres unmarked) [Compound I-21] |
| 1000 to 5000 nM | COC(=O)C1(Oc2nc(-c3cc(-c4ccon4)n(Cc4ccccc4F)n3)ncc2F)CC1 [Compound I-8] |

Continued, molecule first:

| SMILES | EC50 |
| --- | --- |
| O=C1O/C(=C\c2nc(-c3cc(-c4ccon4)n(Cc4ccccc4F)n3)ncc2F)c2ccccc21 [Compound I-26] | 1000 to 5000 nM |
| Fc1ccccc1Cn1nc(-c2ncc(F)c(OC3CCOC3)n2)cc1-c1ccon1 (centres unmarked) [Compound I-15] | 100 to 1000 nM |
| COC(=O)c1ccccc1C#Cc1nc(-c2cc(-c3ccon3)n(Cc3ccccc3F)n2)ncc1F [Compound I-23] | 1000 to 5000 nM |
| Fc1ccccc1Cn1nc(-c2ncc(F)c(OC3CCNCC3)n2)cc1-c1ccon1 [Compound I-13] | ≥ 5000 nM |
| Fc1ccccc1Cn1nc(-c2ncc(F)c(OCC(F)(F)c3ccccn3)n2)cc1-c1ccon1 [Compound I-17] | 100 to 1000 nM |
| Fc1ccccc1Cn1nc(-c2ncc(F)c(OC3CNC3)n2)cc1-c1ccon1 [Compound I-14] | 1000 to 5000 nM |
| O=C(O)c1ccccc1C(=O)Cc1nc(-c2cc(-c3ccon3)n(Cc3ccccc3F)n2)ncc1F [Compound I-27] | 1000 to 5000 nM |
| CC(C)(C)OC(=O)N1CCCC1COc1nc(-c2cc(-c3ccon3)n(Cc3ccccc3F)n2)ncc1F (centres unmarked) [Compound I-4] | 1000 to 5000 nM |
| COC(=O)COc1nc(-c2cc(-c3ccon3)n(Cc3ccccc3F)n2)ncc1F [Compound I-7] | 1000 to 5000 nM |

target: T2, sGC enzyme (Homo sapiens, UniProt Q02108+Q02153); experiment: cGMP GloSensor cell-based assay, 384-well format (Example 2C); conditions: read-out: sGC_HEK_GloSensor EC50/IC50 Abs (Norm) (nM) Binned
T2 construct: host or cells: HEK293 cells stably expressing GloSensor 40F cGMP biosensor
T2 sequence (Q02153 1-619): T1 sequence (Q02153 1-619)
T2 sequence (Q02108 1-690): T1 sequence (Q02108 1-690)
From the text: Human embryonic kidney cells (HEK293) cells expressing GloSensor™ 40F cGMP (Part No: CS182801, Promega) were used to evaluate the activity of test compounds. The luminescent biosensors (engineered luciferase) that were incorporated into these cells detect cGMP formed by the compounds stimulating the sGC enzyme and emit luminescence.
cGMP GloSensor cells were maintained in Dulbecco's Modification of Eagle's Medium (DMEM) supplemented with fetal bovine serum (FBS) (10% final) and hygromycine (200 ug/ml). The day before assay, cells were plated in DMEM with 10% FBS in a 50 μL volume at a density of 1.5×10^4 cells/well in a poly-D-lysine coated 384-well flat white-bottom plate (Corning Cat No 35661). Cells were incubated overnight at 37° C. in a humidified chamber with 5% CO2. The next day, medium was removed and cells were replaced with 40 ul/well of GloSensor™, 2 mM (Promega Cat No E1291). Cells were treated for 90 minutes at 25° C. to allow the substrate to equilibrate in the cells. Test compounds and Diethylenetriamine NONOate (DETA-NONOate) was diluted to 3 mM (20×) in serum-free CO2 independent medium and serally diluted at 4× dilutions to create 5× dose curve from which 10 ul was added to the wells (x μM concentration for test compound solution and 10 μM concentration for DETA-NONOate solution; wherein x is one of the following final concentrations).
For the kinetics studies, luminescense was measured right away for 0.2 sec per well with Envision (Perkin Elmer model No). For endpoint SAR screening, data were collected after 55 min incubation at room temperature.
Data analysis was carried out as indicated above in Example 2C.

| EC50 | SMILES |
| --- | --- |
| > 1000 nM | OCCSc1cnc(-c2cc(-c3ccon3)n(Cc3ccccc3F)n2)nc1SCCO [Compound I-35] |
| 100 to 1000 nM | Fc1ccccc1Cn1nc(-c2ncc(F)c(Sc3ccccc3)n2)cc1-c1ccon1 [Compound I-37] |
| ≤ 100 nM | O=S(=O)(c1ccccc1)c1nc(-c2cc(-c3ccon3)n(Cc3ccccc3F)n2)ncc1F [Compound I-38] |
| > 1000 nM | OCCSc1nc(-c2cc(-c3ccon3)n(Cc3ccccc3F)n2)ncc1F [Compound I-34] |

target: T3, human recombinant soluble guanylate cyclase enzyme α1β1 (Homo sapiens, UniProt Q02108+Q02153); experiment: Purified human recombinant sGC α1β1 enzyme assay with DETA-NONOate, cGMP HTRF (Example 5); format: biochemical; conditions: 30 uM DETA NONOate, 50% of maximal response of 30 uM Compound Y, read-out: sGC_Enz_HTRF_a1b1 EC50/IC50 Abs (Norm) (nM) Binned
T3 construct: purchased Enzo Life Sciences ALX-201-177
T3 sequence (Q02153 1-619): T1 sequence (Q02153 1-619)
T3 sequence (Q02108 1-690): T1 sequence (Q02108 1-690)
Description: Purified human recombinant soluble guanylate cyclase enzyme α1β1 (h sGC) obtained from Enzo Life Sciences (P/N: ALX-201-177) was used to evaluate the activity of test compounds. The assay reactions contained 0.1 M Tris (pH 8.0), 0.5 mg/mL BSA, 2 mM DTT, 4 mM MgCl2, 30 uM DETA NONOate (Enzo Life Science P/N: ALX-430-014), and 12.5 ng/ml human soluble guanylate cyclase enzyme. […] Guanosine 5′-triphosphate (Sigma-Aldrich P/N: G8877) was added to a final concentration of 300 μM and enzyme reactions were incubated (100 μL, 384-well plate format) at 37° C. for 20 minutes. The controls contained 3% DMSO (low control), or 30 uM of Compound Y (high control). After the 20 minute incubation, the reaction was stopped with the addition of 100 μL of ice cold 20% acetic acid.
cGMP concentrations in all samples were determined using the cGMP HTRF (Cisbio P/N: 62GM2PEC) assay per manufacturer's instructions. A cGMP standard curve was fit using a 4-parameter fit (log(inhibitor) vs. response variable slope) using GraphPad Prism Software v.6. Samples were diluted appropriately to ensure that values fell within the linear range of the standard curve.
Data were fit using a 4-parameter fit (log(agonist) vs. response variable slope) using GraphPad Prism Software v.6.

| EC50 | SMILES |
| --- | --- |
| ≥ 5000 nM | O=C(O)COc1nc(-c2cc(-c3ccon3)n(Cc3ccccc3F)n2)ncc1F [Compound I-6] |

system: lambs with acute pulmonary hypertension; experiment: not given; conditions: after intravenous ODQ; cited from earlier work

| SMILES | pulmonary vasodilation and transpulmonary cGMP release after ODQ treatment |
| --- | --- |
| O=C(O)CCCCN(CCc1ccccc1OCc1ccc(CCc2ccccc2)cc1)Cc1ccc(C(=O)O)cc1 [BAY 58-2667] | greatly enhanced |

same assay, conditions: combination with inhaled nitric oxide; cited from earlier work

| SMILES | pulmonary vasodilation induced by iNO after inhaling microparticles |
| --- | --- |
| Nc1nc(-c2nn(Cc3ccccc3F)c3ncccc23)nc(N)c1N1CCOCC1 [BAY 41-8543] | augmented |

same assay, conditions: inhaled microparticles, awake lambs, U-46619 infusion; cited from earlier work

| SMILES | effect on mean arterial pressure | pulmonary vasodilation | transpulmonary cGMP release |
| --- | --- | --- | --- |
| O=C(O)CCCCN(CCc1ccccc1OCc1ccc(CCc2ccccc2)cc1)Cc1ccc(C(=O)O)cc1 [BAY 58-2667] | without significant effect on mean arterial pressure | dose dependent pulmonary vasodilation | increased transpulmonary cGMP release |
| Nc1nc(-c2nn(Cc3ccccc3F)c3ncccc23)nc(N)c1N1CCOCC1 [BAY 41-8543] | without significant effect on mean arterial pressure | dose dependent pulmonary vasodilation | increased transpulmonary cGMP release |
| Nc1nc(-c2nn(Cc3ccccc3F)c3ncccc23)ncc1C1CC1 [BAY 41-2272] | without significant effect on mean arterial pressure | dose dependent pulmonary vasodilation | increased transpulmonary cGMP release |

same assay, conditions: inhaled microparticles, awake lambs; cited from earlier work

| SMILES | systemic arterial oxygenation |
| --- | --- |
| O=C(O)CCCCN(CCc1ccccc1OCc1ccc(CCc2ccccc2)cc1)Cc1ccc(C(=O)O)cc1 [BAY 58-2667] | increased systemic arterial oxygenation |
| Nc1nc(-c2nn(Cc3ccccc3F)c3ncccc23)nc(N)c1N1CCOCC1 [BAY 41-8543] | increased systemic arterial oxygenation |
